Experiments:
[1] = CKD population; need for dose adjustment; cited from earlier work
[2] = Metabolic parameters (HbA1c, active GLP-1); assay type: in vivo, rat; conditions: seven weeks; for plasma active GLP-1 levels: both sham and SNx rats, linagliptin 1.5 mg/kg/day or sitagliptin 20 mg/kg/day; for HbA1c: sham and SNx rats, linagliptin 1.5 mg/kg/day or sitagliptin 20 mg/kg/day oral gavage
Excerpt: (§1) Briefly, animals were anesthetized with 2.5% inhaled isoflurane, the right kidney was removed via subcapsular nephrectomy and infarction of approximately two thirds of the left kidney was achieved via selective ligation of two out of the three or four branches of the left renal artery. Sham surgery consisted of laparotomy and manipulation of both kidneys before wound closure. Rats were followed for eight weeks after surgery. […] All rats were housed in a stable environment and allowed free access to Reverse Osmosis water and standard rat chow.
Blood glucose was measured with Accu-check Advantage (Roche, Mississauga, Ontario). HbA1c was measured using A1cNow+ (Bayer, Sunnyvale, Calif.). Active GLP-1 was determined using active GLP-1 (v2) kit (Meso Scale Discovery, Rockville, Md.).
Sham and SNx rats treated with vehicle, linagliptin and sitagliptin. Heart weights and kidney weights were increased in SNx rats relative to sham. HbA1c was unchanged in all treatment groups.

[3] = test system: subtotally nephrectomized (SNx) rats; assay: Cardiac catheterization, pressure volume loops (cardiac function); assay type: in vivo, rat; conditions: in comparison to vehicle-treated SNx rats, linagliptin 1.5 mg/kg/day or sitagliptin 20 mg/kg/day, seven weeks
Excerpt: as §1
Cardiac catheterization was performed as previously published. Briefly, rats were anesthetized (2% isoflurane), placed on a warming pad (37 °C), intubated and ventilated using positive pressure. The right internal carotid artery was ligated cranially and a 2F miniaturized combined conductance catheter-micromanometer (Model SPR-838, Millar Instruments, Houston, Tex.) was inserted into the carotid artery and advanced into the left ventricle until stable pressure volume (PV) loops were obtained. […] All PV loops were obtained with the ventilator turned off for 5-10 seconds and the animal apneic. […] A range of functional parameters were then calculated using the pressure conductance data (Millar analysis software PVAN 3.4).

[4] = test system: subtotally nephrectomized (SNx) rats; assay: Cardiac gene expression (real time PCR); assay type: in vivo, rat; conditions: SNx rats vs vehicle-treated SNx; seven weeks treatment
Excerpt: Briefly, animals were anesthetized with 2.5% inhaled isoflurane, the right kidney was removed via subcapsular nephrectomy and infarction of approximately two thirds of the left kidney was achieved via selective ligation of two out of the three or four branches of the left renal artery. Sham surgery consisted of laparotomy and manipulation of both kidneys before wound closure. Rats were followed for eight weeks after surgery. […] All rats were housed in a stable environment and allowed free access to Reverse Osmosis water and standard rat chow. RNA was isolated from homogenized rat heart tissue using TRIzol reagent (Life Technologies, Grand Island, N.Y.). Total RNA (4 μg) was treated with RQ1 DNase (1U/μl) (Promega, Madison, Wis.). DNase treated RNA (4 μg) was reverse-transcribed in a final volume of 25 μl using 0.5 μl AMV-RT (Roche Diagnostics, Laval, Quebec) in the manufacturer's buffer containing 1 mmol/L dNTPs, 0.5 μl RNase inhibitor (Roche) and 2 μg random hexamers (GE Healthcare Life Sciences, Baie d'Urfe, Quebec). […]

[5] = test system: subtotally nephrectomized (SNx) rats; assay: Immunohistochemistry for cardiac collagen I; assay type: in vivo, rat; conditions: SNx rats vs vehicle-treated SNx; seven weeks treatment
Excerpt: as §1
Immunohistochemistry for fibrillar collagen type I (Southern Biotech, Birmingham, Ala.) was performed as previously described with the antibody used at a concentration of 1:400. Stained heart sections were scanned with the Aperio ScanScope system (Aperio, Vista, Calif.) and analysed with ImageScope (Aperio). Interstitial collagen I was determined as the proportional area of positive immunostaining in 10 randomly selected fields (×100 magnification).

[6] = test system: subtotally nephrectomized (SNx) rats; assay: Myocyte hypertrophy (H&E stained sections); assay type: in vivo, rat; conditions: SNx rats vs vehicle-treated SNx; seven weeks treatment
Excerpt: as §1
Cardiac myocyte hypertrophy was determined on haematoxylin and eosin (H&E) stained sections, as previously reported. Myocyte cross sectional area was determined on H&E stained sections as adapted from the methods described by Frustaci and colleagues.

[7] = test system: subtotally nephrectomized (SNx) rats; assay: Renal function (blood pressure, urine protein excretion, GFR); assay type: in vivo, rat; conditions: seven weeks treatment; for GFR: FITC-inulin clearance
Excerpt: as §1
For estimation of urine protein excretion, rats were individually housed in metabolic cages for 24 h with free access to tap water and standard diet. Urine protein was measured with the benzethonium chloride method. Urinary excretion of markers of renal injury was determined using Rat KidneyMAP v1.0 (Myriad RBM, Austin, Tex.) and expressed as the ratio to urine creatinine determined by autoanalyzer. Glomerular filtration rate (GFR) was determined by FITC-inulin clearance, as previously described.

[8] = test system: sham and subtotally nephrectomized (SNx) rats; assay: Renal structure (glomerulosclerosis index, JG-12 and collagen IV immunohistochemistry); assay type: in vivo, rat; conditions: either sham or SNx rats; seven weeks treatment
Excerpt: as §1
A minimum of 50 glomeruli were examined in PAS-stained kidney sections from each rat. […] Glomerulosclerosis was defined as basement membrane thickening, mesangial hypertrophy and capillary occlusion. A glomerulosclerosis index (GSI) was then calculated using the formula:
[formula] Where Fi is the percentage of glomeruli in the rat kidney with a given score (i).
Immunohistochemistry for glomerular capillary density and tubulointerstitial collagen IV Immunohistochemistry of kidney tissue was performed as previously described with antibodies in the following concentrations: JG-12 1:1000 (Bender Medsystems GbdH, Vienna, Austria) and collagen IV 1:100 (Southern Biotech). Kidney sections were scanned with the Aperio ScanScope system and analysed with ImageScope, as already described. Glomerular endothelial (JG-12) immunostaining was determined in 30 glomerular profiles from each rat kidney section. For estimation of tubulointerstitial collagen IV, the proportional area of positive immunostaining (excluding glomeruli) was determined in 10 randomly selected cortical fields (×100 magnification).

[9] = test system: patients with type 2 diabetes; conditions: recent meta-analysis; cited from earlier work

SMILES: Cn1c(=O)cc(N2CCC[C@@H](N)C2)n(Cc2ccccc2C#N)c1=O [alogliptin]
- route of clearance [1]: cleared in the urine

SMILES: CC#CCn1c(N2CCC[C@@H](N)C2)nc2c1c(=O)n(Cc1nc(C)c3ccccc3n1)c(=O)n2C [linagliptin, 1-[(4-methyl-quinazolin-2-yl)methyl]-3-methyl-7-(2-butyn-1-yl)-8-(3-(R)-amino-piperidin-1-yl)-xanthine]
- plasma active GLP-1 levels [2]: similarly increased
- HbA1c [2]: unchanged
- end diastolic pressure volume relationship (EDPVR) [3]: significantly lower
- cardiac collagen I mRNA [4]: attenuation in the overexpression
- cardiac collagen I protein [5]: attenuation in the overexpression
- cardiomyocyte size determined in H&E stained sections [6]: neither cardiomyocyte size determined in H&E stained sections (FIGS. 2C1 and 2C2) nor α-MHC:β-MHC ratio were changed
- GFR [7]: neither linagliptin nor sitagliptin significantly affected
- blood pressure [7]: neither linagliptin nor sitagliptin significantly affected
- proteinuria [7]: neither linagliptin nor sitagliptin significantly affected
- cortical tubulointerstitial collagen IV immunostaining [8]: None of these markers of renal structural injury were affected
- glomerular capillary density (JG-12 immunostaining) [8]: None of these markers of renal structural injury were affected
- route of clearance [1]: secreted via the bile
- albuminuria [9]: reduction in albuminuria

SMILES: N#C[C@@H]1C[C@@H]2C[C@@H]2N1C(=O)[C@@H](N)C12CC3CC(CC(O)(C3)C1)C2 [saxagliptin]
- route of clearance [1]: cleared in the urine

SMILES: N[C@@H](CC(=O)N1CCn2c(nnc2C(F)(F)F)C1)Cc1cc(F)c(F)cc1F [sitagliptin]
- plasma active GLP-1 levels [2]: similarly increased
- HbA1c [2]: unchanged
- end diastolic pressure volume relationship (EDPVR) [3]: significantly lower
- cardiac collagen I mRNA [4]: attenuation in the overexpression
- cardiac collagen I protein [5]: attenuation in the overexpression
- cardiomyocyte size determined in H&E stained sections [6]: neither cardiomyocyte size determined in H&E stained sections (FIGS. 2C1 and 2C2) nor α-MHC:β-MHC ratio were changed
- GFR [7]: neither linagliptin nor sitagliptin significantly affected
- blood pressure [7]: neither linagliptin nor sitagliptin significantly affected
- proteinuria [7]: neither linagliptin nor sitagliptin significantly affected
- cortical tubulointerstitial collagen IV immunostaining [8]: None of these markers of renal structural injury were affected
- glomerular capillary density (JG-12 immunostaining) [8]: None of these markers of renal structural injury were affected
- route of clearance [1]: cleared in the urine

Source: patent US9526728B2, “Medical use of a DPP-4 inhibitor” (Boehringer Ingelheim International GmbH, priority 2014, dated 2016)
